Experimental data taken from patent publication US6818445B2 (Synaptic Pharmaceutical Corporation, priority 1994, dated 2004).

Tests used:
[1] = system: food intake of 24 h food-deprived rats; test: Food intake in food-deprived rats; type: in vivo, rat; conditions: 30 mg/kg i.p. after 24 h food deprivation, percentage of intake compared to control rats
Protocol: At the end of the equilibration period, food is removed from the animals for 24 hours starting at 8:00 a.m. At the end of the fasting period compound or vehicle may be administered to the animals orally or by injection intraperitoneally or intravenously. After 10-60 min. food is returned to the animals and their food intake is monitored at various time periods during the following 24 hour period. The food intake of animals treated with test compound may be calculated as a percentage of the food intake of control animals (i.e., animals treated with vehicle). Alternatively, food intake for each group of animals subjected to a particular experimental condition may be expressed as the mean±S.E.M.
Therefore, the Y5 antagonists of Table 14 were administered by intraperitoneal injection at a dose of 30 mg/kg to conscious rats following a 24 h food deprivation. […] Measurements were performed two hours after administration of the test compound.

[2] = target: T1, human Y2 receptor (Homo sapiens, UniProt P49146); type: binding; conditions: read-out: Binding Affinity (Ki (nM) vs. ^125I-PYY) Human Receptor Y2; Table 14
T1 sequence (P49146 1-381): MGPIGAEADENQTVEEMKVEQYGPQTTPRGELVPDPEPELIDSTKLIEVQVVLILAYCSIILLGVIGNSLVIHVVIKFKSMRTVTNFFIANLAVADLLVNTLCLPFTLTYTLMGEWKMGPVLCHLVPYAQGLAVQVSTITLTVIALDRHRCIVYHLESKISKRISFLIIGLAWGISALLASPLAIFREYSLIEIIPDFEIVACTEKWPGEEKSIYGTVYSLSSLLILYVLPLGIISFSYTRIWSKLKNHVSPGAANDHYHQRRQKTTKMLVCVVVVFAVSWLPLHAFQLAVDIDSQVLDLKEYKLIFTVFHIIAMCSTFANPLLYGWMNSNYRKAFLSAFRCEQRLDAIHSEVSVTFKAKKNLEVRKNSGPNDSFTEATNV

[3] = target: human 5HT2 receptor (Homo sapiens, UniProt P28223); test: Binding to human 5HT2 receptor, [3H]ketanserin; conditions: cloned human receptor
human 5HT2 receptor, sequence (P28223 whole entry): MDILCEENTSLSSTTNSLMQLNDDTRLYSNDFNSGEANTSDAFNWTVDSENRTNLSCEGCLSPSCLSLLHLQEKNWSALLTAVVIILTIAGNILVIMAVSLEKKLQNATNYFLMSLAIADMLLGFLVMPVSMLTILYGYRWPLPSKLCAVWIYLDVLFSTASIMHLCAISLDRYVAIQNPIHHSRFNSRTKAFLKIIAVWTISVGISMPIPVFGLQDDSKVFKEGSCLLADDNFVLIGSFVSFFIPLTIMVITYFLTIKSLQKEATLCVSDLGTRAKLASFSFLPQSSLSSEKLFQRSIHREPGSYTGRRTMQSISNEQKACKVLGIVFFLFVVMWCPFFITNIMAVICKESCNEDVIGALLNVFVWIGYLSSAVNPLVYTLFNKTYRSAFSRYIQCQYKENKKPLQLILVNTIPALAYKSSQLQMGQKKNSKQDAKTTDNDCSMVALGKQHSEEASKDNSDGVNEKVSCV

[4] = target: T2, human α2B receptor (Homo sapiens, UniProt P18089); test: Binding to cloned human α2B adrenergic receptor, [3H]rauwolscine
T2 sequence (P18089 1-450): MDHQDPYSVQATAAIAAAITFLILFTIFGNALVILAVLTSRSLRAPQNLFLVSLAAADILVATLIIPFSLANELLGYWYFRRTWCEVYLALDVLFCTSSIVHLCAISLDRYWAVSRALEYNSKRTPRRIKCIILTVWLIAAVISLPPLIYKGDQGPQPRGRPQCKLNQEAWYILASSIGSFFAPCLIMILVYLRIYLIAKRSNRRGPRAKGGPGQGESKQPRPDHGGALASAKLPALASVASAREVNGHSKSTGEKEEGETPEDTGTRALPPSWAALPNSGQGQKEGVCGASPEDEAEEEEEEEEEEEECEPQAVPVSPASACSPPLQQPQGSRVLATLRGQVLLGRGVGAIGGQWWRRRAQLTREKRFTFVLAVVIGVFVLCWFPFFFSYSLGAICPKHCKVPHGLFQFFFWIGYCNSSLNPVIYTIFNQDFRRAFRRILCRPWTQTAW

[5] = target: human Y4 receptor (Homo sapiens, UniProt P50391); type: binding; conditions: read-out: Binding Affinity (Ki (nM) vs. ^125I-PYY) Human Receptor Y4; Table 14
human Y4 receptor, sequence (P50391 whole entry): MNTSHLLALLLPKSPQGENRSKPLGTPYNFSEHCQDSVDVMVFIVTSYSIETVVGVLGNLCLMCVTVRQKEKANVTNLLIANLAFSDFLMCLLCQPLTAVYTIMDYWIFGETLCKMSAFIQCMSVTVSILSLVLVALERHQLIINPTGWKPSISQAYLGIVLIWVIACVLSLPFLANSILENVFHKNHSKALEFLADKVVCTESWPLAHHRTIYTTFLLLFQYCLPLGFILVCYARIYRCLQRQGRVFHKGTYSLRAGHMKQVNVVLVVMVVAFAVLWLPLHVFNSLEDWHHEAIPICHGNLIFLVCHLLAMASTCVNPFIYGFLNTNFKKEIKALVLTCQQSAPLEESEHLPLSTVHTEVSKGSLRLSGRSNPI

[6] = target: human 5HT1Dα receptor (Homo sapiens, UniProt P28221); test: Binding to human 5HT1Dα receptor, [3H]serotonin; conditions: cloned human receptor
human 5HT1Dα receptor, sequence (P28221 whole entry): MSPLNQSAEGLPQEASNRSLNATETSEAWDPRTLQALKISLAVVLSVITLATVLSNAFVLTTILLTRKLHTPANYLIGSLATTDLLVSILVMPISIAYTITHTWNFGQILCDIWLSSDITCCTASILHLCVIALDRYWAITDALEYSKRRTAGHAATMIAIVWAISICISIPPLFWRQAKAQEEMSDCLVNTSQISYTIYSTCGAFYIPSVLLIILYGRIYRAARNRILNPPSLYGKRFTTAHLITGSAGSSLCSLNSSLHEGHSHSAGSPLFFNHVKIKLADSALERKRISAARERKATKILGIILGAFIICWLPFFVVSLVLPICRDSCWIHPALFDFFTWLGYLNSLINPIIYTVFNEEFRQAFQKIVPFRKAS

[7] = target: T3, human α1b receptor (Homo sapiens, UniProt P35368); test: Binding to cloned human α1b adrenergic receptor
T3 sequence (P35368 1-520): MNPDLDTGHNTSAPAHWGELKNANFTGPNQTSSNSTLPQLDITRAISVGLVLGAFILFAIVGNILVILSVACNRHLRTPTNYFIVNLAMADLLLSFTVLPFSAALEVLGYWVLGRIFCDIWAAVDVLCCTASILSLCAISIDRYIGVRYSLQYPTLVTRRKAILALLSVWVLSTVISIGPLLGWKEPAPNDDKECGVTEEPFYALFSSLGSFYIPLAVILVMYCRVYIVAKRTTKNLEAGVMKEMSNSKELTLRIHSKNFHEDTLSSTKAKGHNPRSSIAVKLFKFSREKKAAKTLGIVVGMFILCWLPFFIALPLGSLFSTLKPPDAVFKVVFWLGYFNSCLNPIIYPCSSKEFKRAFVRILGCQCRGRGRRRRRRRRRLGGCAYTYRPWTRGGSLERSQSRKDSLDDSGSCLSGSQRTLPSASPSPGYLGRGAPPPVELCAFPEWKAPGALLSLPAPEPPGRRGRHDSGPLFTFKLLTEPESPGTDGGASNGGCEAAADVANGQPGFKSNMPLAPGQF

[8] = target: T4, human α2A receptor (Homo sapiens, UniProt P08913); test: Binding to cloned human α2A adrenergic receptor, [3H]rauwolscine
T4 sequence (P08913 1-465): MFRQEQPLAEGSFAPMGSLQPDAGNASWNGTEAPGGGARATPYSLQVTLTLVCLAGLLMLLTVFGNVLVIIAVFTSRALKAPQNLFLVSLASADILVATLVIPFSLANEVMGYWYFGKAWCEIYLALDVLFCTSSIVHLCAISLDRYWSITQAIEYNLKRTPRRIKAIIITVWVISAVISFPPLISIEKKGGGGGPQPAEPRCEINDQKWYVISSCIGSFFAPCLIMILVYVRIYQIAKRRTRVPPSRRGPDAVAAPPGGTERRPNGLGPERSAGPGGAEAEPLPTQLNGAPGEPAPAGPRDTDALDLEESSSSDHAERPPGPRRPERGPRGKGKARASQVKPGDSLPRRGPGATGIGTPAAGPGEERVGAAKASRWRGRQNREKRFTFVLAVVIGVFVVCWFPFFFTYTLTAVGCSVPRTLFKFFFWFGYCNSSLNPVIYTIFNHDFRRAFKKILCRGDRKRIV

[9] = target: human 5-HT7 receptor (Homo sapiens, UniProt P34969); test: Binding to human 5-HT7 receptor; conditions: cloned human receptor
human 5-HT7 receptor, sequence (P34969 1-445 isoform P34969-2): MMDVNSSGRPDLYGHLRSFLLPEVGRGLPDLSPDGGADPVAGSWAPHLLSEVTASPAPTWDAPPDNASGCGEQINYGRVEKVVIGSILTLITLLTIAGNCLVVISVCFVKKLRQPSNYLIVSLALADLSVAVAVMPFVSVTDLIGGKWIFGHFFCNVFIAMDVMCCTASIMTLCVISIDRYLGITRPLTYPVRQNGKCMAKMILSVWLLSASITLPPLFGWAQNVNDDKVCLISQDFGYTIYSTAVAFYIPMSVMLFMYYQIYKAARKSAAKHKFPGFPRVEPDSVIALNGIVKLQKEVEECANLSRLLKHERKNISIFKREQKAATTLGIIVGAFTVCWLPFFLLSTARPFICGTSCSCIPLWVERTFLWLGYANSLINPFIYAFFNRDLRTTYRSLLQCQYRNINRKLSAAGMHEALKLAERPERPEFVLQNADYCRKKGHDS

Cl.O=S(=O)(NC[C@H]1CC[C@H](CNCC2CCc3ccccc3C2)CC1)c1cccc2ccccc12 (stereo partly drawn) [Compound 19]
Two-hour food intake of food-deprived rats, Mean (%) [1]: 36%
Ki [2]: 955 nM
Receptor (pKi) 5HT2 [3]: 6.55
Receptor (pKi) α2b [4]: 6.58
Ki [5]: 11700 nM
Receptor (pKi) 5HT1Dα [6]: 6.04
Receptor (pKi) α1b [7]: 7.35
Receptor (pKi) α2a [8]: 6.74
Receptor (pKi) 5HT7 [9]: 6.42

Cl.O=[N+]([O-])c1ccccc1S(=O)(=O)NC[C@H]1CC[C@H](CNCC2CCc3ccccc3C2)CC1 (stereo partly drawn) [Compound 20]
Two-hour food intake of food-deprived rats, Mean (%) [1]: 35%
Ki [2]: 7760 nM
Receptor (pKi) 5HT2 [3]: 5.93
Receptor (pKi) α2b [4]: 6.96
Ki [5]: 20400 nM
Receptor (pKi) 5HT1Dα [6]: 5.94
Receptor (pKi) α1b [7]: 7.22
Receptor (pKi) α2a [8]: 7.31
Receptor (pKi) 5HT7 [9]: 6.37

Cl.Cl.Nc1ccccc1S(=O)(=O)NCC1CCC(CNCC2CCc3ccccc3C2)CC1 (stereo not drawn) [Compound 22]
Two-hour food intake of food-deprived rats, Mean (%) [1]: 55%
Ki [2]: 7570 nM
Receptor (pKi) 5HT2 [3]: 5.99
Receptor (pKi) α2b [4]: 6.43
Ki [5]: 27500 nM
Receptor (pKi) 5HT1Dα [6]: 5.98
Receptor (pKi) α1b [7]: 6.98
Receptor (pKi) α2a [8]: 7.05
Receptor (pKi) 5HT7 [9]: 6.39
